Test results: US10973920B2, “Saccharide derivative of a toxic payload and antibody conjugates thereof” (priority 2014, dated 2021)
Values joined by “and” are separate entries in the source; they are usually repeats but may differ in a detail not shown here. Equal entries are not always repeated. Where a SMILES comes first, the peptide text is derived from it. [ ]: non-standard residue; d: D form. The star is where a group is joined. X1 = C[C@@H](N*)[C@@H](O[C@@H]1O[C@H](CO)[C@H](O)[C@H](O)[C@H]1O)c1ccccc1; Dolaproine = CO[C@@H]([C@@H]1CCCN1)[C@@H](C)C(=O)O; Dil = CC[C@H](C)[C@H](NC)[C@@H](CC(=O)O)OC; X2 = C[C@@H](N*)[C@@H](O)c1ccccc1; NMeV = CN[C@H](C(=O)O)C(C)C

Test system: cancer cells (SKOV-3 and HSC-2)
Assay: Cytotoxicity to cancer cells, PrestoBlue cell viability, 96 h
Conditions: for IC50: concentration wherein cancer cell viability falls to 50%, cell line not given
Procedure: Human ovarian cancer cell line SKOV-3 (ATCC, Manassas, Va., USA) and head-and-neck squamous cell carcinoma cell line HSC-2 (Japanese Collection of Research Bioresources, Osaka, Japan) were grown according to the suppliers' recommendations. Log phase cultures were collected and cells were seeded onto 96-well plates and incubated for 24 h. Serial dilutions of test molecules were added to cells and cultures were incubated further for 96 h. Cell viability was evaluated using PrestoBlue cell viability reagent (Life Technologies, Carlsbad, Calif., USA) according to the manufacturer's instructions. Cells were incubated for 2 h, and dye reduction was measured by absorbance at 570 nm. The compounds were assayed 1-2 times in triplicate.
The results are expressed in Table 1 as IC50 values.

SMILES | IC50 | Cytotoxicity (in words) (concentrations up to 100 nM)
CC[C@H](C)[C@@H]([C@@H](CC(=O)N1CCC[C@H]1[C@H](OC)[C@@H](C)C(=O)N[C@H](C)[C@@H](O)c1ccccc1)OC)N(C)C(=O)[C@@H](NC(=O)[C@@H](NC)C(C)C)C(C)C [MMAE, monomethylauristatin E] (H-[NMeV]V[Dil][Dolaproine]-X2) | ~10 nM and 10 nM | –
CC[C@H](C)[C@@H]([C@@H](CC(=O)N1CCC[C@H]1[C@H](OC)[C@@H](C)C(=O)N[C@H](C)[C@@H](O[C@@H]1O[C@H](CO)[C@H](O)[C@H](O)[C@H]1O)c1ccccc1)OC)N(C)C(=O)[C@@H](NC(=O)[C@@H](NC)C(C)C)C(C)C [MMAG, O-β-D-galactopyranosylmonomethylauristatin E] (H-[NMeV]V[Dil][Dolaproine]-X1) | > 100 nM | relatively non-toxic
